# Experimental data published in paper PMC8354611, “Orientin mediates protection against MRSA-induced pneumonia by inhibiting Sortase A” (Virulence, 2021).
# “And” between values parts separate entries of the source, which are not always exact repeats. Equal values may be shown once. Marks after values point to notes of the source that are not given here.
# What was measured:
# [1] = tested on: S. aureus USA300; test: Adherence of S. aureus to immobilized fibrinogen; type: cell-based; settings: WT S. aureus treated with 200 µM orientin
# Method: The S. aureus USA300 was grown in BHI broth for 12 h and then diluted (1:100) in fresh BHI containing different concentrations of orientin, then continued to culture until an OD600 reached 0.5. The ∆srtA mutant was cultured under the same conditions as a positive control. Subsequently, the bacterial culture was added to a 96-well plate previously coated with bovine fibrinogen (20 µg/mL). Then, the sample was incubated for 2 h at 37°C, and 25% (v/v) formaldehyde was added to fix the adherent bacterial cells for 30 min after discarding the suspension. The formaldehyde was removed, and the plate was washed twice with PBS, following which, crystal violet was added to stain the cells for 20 min. The wells were gently washed with PBS and dried, and the OD value at 570 nm was measured.
# [2] = tested on: Staphylococcal protein A (SpA) anchoring to the cell wall; test: FITC-IgG binding to Staphylococcal protein A (SpA); type: cell-based, S. aureus; settings: 200 µM orientin, compared to the WT group
# Method: Overnight culture of S. aureus and S. aureus ΔsrtA was diluted 1:1000 in TSB medium, and different concentrations of orientin (0–200 µM) were added to the culture with shaking at 37°C until the logarithmic growth phase. The bacteria collected by centrifugation were washed thrice with PBS, after which the bacterial precipitate was resuspended with 50 µL of 1:200 diluted FITC-labeled rabbit IgG (Solarbio, Beijing, China). Then, the bacterial precipitate was incubated at ambient temperature for 30 min, and the harvested bacteria were rinsed thrice by PBS. Then, the bacteria were resuspended in 100 µL PBS and added to a black 96-well plate. The Multimode Microplate Reader (Tecan, Spark 20 M) was used to measure the fluorescence intensity at 490 nm for excitation and 520 nm for emission.
# [3] = tested on: S. aureus USA300; test: Broth microdilution MIC; type: cell-based; settings: Staphylococcus aureus, USA300, 16 h
# Method: (§1) The broth microdilution method was performed to determine the MIC of orientin for S. aureus USA300 as previously described. Briefly, orientin was diluted two-fold serially in a 96-well plate at concentrations ranging from 2 to 1024 µg/mL, followed by inoculation with S. aureus USA300 (10^6 CFU/mL) and incubation at 37°C for 16 h. After incubation, the absorbance (OD) value at 600 nm was measured. For the growth curve experiment, the overnight bacterial culture was diluted in fresh BHI (1:100) with various concentrations of orientin (0–200 µM). S. aureus ΔsrtA was used as the control group. Each sample was cultured at 37°C, and the OD600 was measured at 1 h intervals.
# [4] = tested on: S. aureus; test: Pneumonia model experiment; type: in vivo, C57BL/6 J mice; settings: mice
# Method: The pneumonia model was induced as previously described in 7-week-old female C57BL/6 J mice. For survival experiments, a group of 10 mice was infected with 30 µL of S. aureus culture (2 × 10^8 CFUs) via the intranasal route. An hour after infection, the mice were intraperitoneally injected with orientin (100 mg/kg) at intervals of 12 h. Similarly, mice in the control group were injected with sterile PBS containing 0.5% DMSO. The mice were monitored every 12 h for 96 h after administration to calculate the survival rate. For estimation of the bacterial count in the lung tissue and histopathological analysis, the mice were infected with 30 µL (1 × 10^8 CFUs) of S. aureus cultures, and the infection was allowed to progress for 2 d. The mice were then sacrificed, and the lungs were collected, weighed, and homogenized. Then, appropriate dilutions were plated on BHI-agar plates until a single colony appeared and counted. The lung tissues of mice in each group were aseptically separated and fixed in 10% formalin. The lung tissue sections were observed under an optical microscope after conventional hematoxylin and eosin (H&E) staining.
# [5] = target: T1, C184A (Staphylococcus aureus, UniProt Q2FV99, C184A); test: Fluorescence quenching assay, SrtA mutant C184A; type: binding, S. aureus USA300
# T1 construct: 6xHis (N); made in house; host or cells: E. coli BL21(DE3), pET28a
# Method: (§2) The sequence of srtA from S. aureus USA300 was retrieved from the GenBank database. The srtA gene lacking the transmembrane domain (N1–59) was amplified using PCR. The PCR product was then digested and cloned in the BamHI/XhoI restriction sites of the pET28a vector, yielding pET28a-srtA. The site-directed mutagenesis of T93A-SrtA, E105A-SrtA, and C184A-SrtA was conducted using pET28a-srtA using a Multi-Site Mutagenesis Kit (Transgen, Beijing, China). The expression vector was then transformed into the BL21(DE3) expression host, and the bacteria were cultured in BHI medium supplemented with kanamycin (50 µg/mL) at 37°C. In addition, isopropyl-β-D-thiogalactoside (1 mM) was used to induce recombinant SrtA for 4 h at 16°C. Whole-cell lysates of bacteria were prepared through ultrasonic crushing. Recombinant SrtAΔN59 or its mutants were purified using the 6 × His/Ni-NTA system refer to a previous study.
# (§3) The binding constants (KA) of orientin to SrtA were determined using the fluorescence quenching assay. The spectra were recorded in the wavelength interval of 280–400 nm. The protocols used to perform the measurements have previously been described [[31–33]].
# [6] = target: T2, WT-SrtA (Staphylococcus aureus, UniProt Q2FV99); test: Fluorescence quenching assay, WT-SrtA; type: binding, S. aureus USA300
# T2 construct: 6xHis (N); made in house; host or cells: E. coli BL21(DE3), pET28a
# Method: as §2, §3
# [7] = tested on: S. aureus biofilm; test: Crystal violet biofilm assay; type: cell-based; settings: 200 µM orientin, compared to the WT group (untreated S. aureus)
# Method: After overnight culturing, S. aureus was diluted using fresh BHI by 1:100, and different concentrations of orientin ranging from 0 to 200 μM were added with shaking at 37°C to OD600 of 0.6. The bacterial culture (5 µL) was then added to BHI broth containing 1% glucose to a final volume of 200 µL and continue cultured for 18 h. Then, the medium was discarded carefully and washed three times with PBS. Then, the biofilms were stained with a 0.1% (w/v) crystal violet solution for 20 min at ambient temperature conditions. The crystal violet solution was discarded, and the wells were washed thrice with sterile PBS. After drying the plates, 95% ethanol was added into each well, and the absorbance at 570 nm was measured.
# [8] = target: T3, SrtA (Staphylococcus aureus, UniProt Q2FV99); test: FRET assay of SrtA inhibition (cleavage of Abz-LPATG-Dap(Dnp)-NH2); type: biochemical, S. aureus USA300
# T3 construct: 6xHis (N); made in house; host or cells: E. coli BL21(DE3), pET28a
# Method: Fluorescence resonance energy transfer (FRET) was detected the activity of orientin against SrtA, as previously described. The reaction mixture (300 µL) consisted of the reaction buffer (50 mM Tris-HCl, 5 mM CaCl2, 150 mM NaCl, pH 7.5), 4 µM purified SrtA, and various concentrations of orientin (0–200 µM). The sample was incubated at 37°C for 1 h, followed by the addition of substrate peptide (10 μM). After incubation for another hour at 37°C, the fluorescence intensity value was detected at the excitation and emission wavelengths of 350 nm and 495 nm, respectively.
# [9] = tested on: S. aureus USA300; test: Growth curve assay; type: cell-based; settings: 200 µM orientin, growth curve in BHI
# Method: as §1
# [10] = target: T3, SrtA; test: Reversible inhibition assay of SrtA; type: biochemical, S. aureus USA300; settings: SrtA incubated with 10-fold IC50 of orientin, then diluted
# Method: The 10-fold IC50 concentration of orientin was incubated with 100 µL of SrtA (150 µM) for 1 h at 37°C, followed by the addition of 9.9 mL reaction buffer. Then, 190 µL of the mixture was added to each well, and substrate peptide (10 μL) was added until a final concentration of 10 μM was achieved. A multifunctional microplate reader was used to record the fluorescence intensity at 350 nm for excitation and 495 nm for emission.
# [11] = tested on: S. aureus internalization into A549 cells; test: Invasion assay of S. aureus into A549 cells; type: cell-based; settings: S. aureus treated with 100 µM orientin, vs untreated WT, P < 0.001
# Method: The A549 cells were routinely sub-cultured at 37°C with 5% CO2. Cells in the logarithmic growth phase were seeded in a 24-well plate at a density of 2.5 × 10^5 per well and cultured for 20 h. S. aureus was mixed with orientin ranging from 0 to 100 µM and cultured at 37°C until an OD600 of 1.0 was reached. Then, the cell culture medium was discarded, and the cells were resuspended in DMEM medium. After that, a bacterial suspension containing 2 × 10^7 CFU/mL was added to each well. After incubation for 2 h, 300 µg/mL gentamicin was added to stop the invasion. Then, the cells were lysed after washing with sterile PBS and spread on BHI agar plates to calculate the number of colonies in each sample.
# [12] = tested on: D170A; test: Fluorescence quenching assay, SrtA mutant D170A; type: binding, S. aureus USA300
# [13] = target: T4, E105A (Staphylococcus aureus, UniProt Q2FV99, E105A); test: Fluorescence quenching assay, SrtA mutant E105A; type: binding, S. aureus USA300
# T4 construct: 6xHis (N); made in house; host or cells: E. coli BL21(DE3), pET28a
# Method: as §2, §3
# [14] = tested on: expression of SrtA; test: Western blot analysis of SrtA expression; type: cell-based, S. aureus; settings: orientin 0, 25, 50, 100 or 200 µM
# Method: An equal amount of protein extract was separated using SDS-PAGE, followed by transfer to the polyvinylidene difluoride (PVDF) membrane (GE Healthcare, UK). The membrane was incubated in 5% BSA overnight at 4°C. After washing with TBST (TBS + 1‰ Tween 20), the membrane was incubated with rabbit anti-SrtA polyclonal antibody (1:3000) at room temperature. After incubation for 2 h, the membrane was washed thrice and incubated with HRP-conjugated goat anti-rabbit IgG (diluted 1:10,000 in TBST) for 2 h. After washing thrice, the membrane was incubated with Super ECL Plus (US EVERBRIGHT, Suzhou, China) and visualized in an ECL detection system (GE Healthcare, UK). The cytoplasmic protein ClpP was treated in the same way as an internal control. Band quantification was performed using the software ImageQuant TL.
smiles,measurement,setting,value
O=c1cc(-c2ccc(O)c(O)c2)oc2c([C@@H]3O[C@H](CO)[C@@H](O)[C@H](O)[C@H]3O)c(O)cc(O)c12 [orientin],adhesion of S. aureus to fibrinogen,[1],33.10 ± 1.41%
same,relative activity (fluorescence of FITC-IgG bound to SpA),[2],37.32 ± 1.84%
same,MIC,[3],> 512 µg/mL
same,number of viable S. aureus in the lung tissue,"[4]; 100 mg/kg orientin, 2 d after infection, vs untreated group, P < 0.001",significantly reduced
same,lung histopathology,"[4]; 100 mg/kg orientin, H&E staining",inflammatory symptoms were significantly reduced
same,survival rate,"[4]; lethal dose of S. aureus intranasal, 100 mg/kg orientin intraperitoneally at intervals of 12 h, within 72 h",60%
same,Kd,[5],32.1 µM
same,Kd,[6],14 µM
same,biofilm biomass,[7],31.90 ± 0.25%
same,IC50,[8],50.4 ± 0.51 µM
same,effect on S. aureus growth,[9],little inhibitory effect
same,reversibility of SrtA inhibition,[10],reversible inhibitor
same,activity of SrtA recovered (relative activity),[10]; untreated SrtA = 100% activity,84.77 ± 1.28% and 84.77%
same,ability of S. aureus to invade A549 cells,[11],decreased significantly
same,KA,[12],5.37* 1 × 10^4 l/mol
same,Kd,[13],23.5 µM
same,effect on the expression of SrtA,[14],not to affect the expression of SrtA
